# Reference: the supplement of paper PMC10307832
# What was measured:
# Assay in all cases: relative viability (nuclei count vs DMSO), 5 days (fraction); higher = more cells survive
# [1] = compound: O=c1ncccn1[C@@H]1O[C@H](CO)[C@@H](O)[C@H]1O [Zebularine] + CC1(C)CCC(c2ccc(Cl)cc2)=C(CN2CCN(c3ccc(C(=O)NS(=O)(=O)c4ccc(N[C@H](CCN5CCOCC5)CSc5ccccc5)c(S(=O)(=O)C(F)(F)F)c4)cc3)CC2)C1 [Navitoclax] (partner 0.5 µM)
# In short: (§1)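 Each reported value is a median over duplicate plates. It expresses relative viability: treated-well nuclei count divided by vehicle-well nuclei count. Lung cancer cell lines in 1536-well plates were dosed by pin tool a day after seeding, alone with one drug or with a fixed anchor-drug dose plus five library-drug doses (not always all listed) in √10 steps, and nuclei were counted after 5 days.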
# [2] = compound: CC(C)CCN1c2nc(Nc3cc(F)c(O)c(F)c3)ncc2N(C)C(=O)C1C [BI-D1870] + N=C(N)NC(=N)NCCc1ccccc1 [Phenformin] (partner 250 µM)
# In short: as §1
# [3] = compound: CC(C)CCN1c2nc(Nc3cc(F)c(O)c(F)c3)ncc2N(C)C(=O)C1C [BI-D1870] + CC(=O)Nc1cccc(-n2c(=O)n(C3CC3)c(=O)c3c(Nc4ccc(I)cc4F)n(C)c(=O)c(C)c32)c1 [Trametinib] (partner 0.02 µM)
# In short: as §1
# [4] = compound: CC(C)CCN1c2nc(Nc3cc(F)c(O)c(F)c3)ncc2N(C)C(=O)C1C [BI-D1870] + Nc1ncn([C@H]2C[C@H](O)[C@@H](CO)O2)c(=O)n1 [Decitabine] (partner 2 µM)
# In short: as §1
Cell Line,relative viability ([1]; first compound 1 µM),relative viability ([1]; first compound 3.162 µM),relative viability ([1]; first compound 10 µM),relative viability ([1]; first compound 31.62 µM),relative viability ([1]; first compound 100 µM),relative viability ([2]; first compound 0.04 µM),relative viability ([2]; first compound 0.1265 µM),relative viability ([2]; first compound 0.4 µM),relative viability ([2]; first compound 1.265 µM),relative viability ([2]; first compound 4 µM),relative viability ([3]; first compound 0.04 µM),relative viability ([3]; first compound 0.1265 µM),relative viability ([3]; first compound 0.4 µM),relative viability ([3]; first compound 1.265 µM),relative viability ([3]; first compound 4 µM),relative viability ([4]; first compound 0.04 µM),relative viability ([4]; first compound 0.1265 µM),relative viability ([4]; first compound 0.4 µM),relative viability ([4]; first compound 1.265 µM),relative viability ([4]; first compound 4 µM)
NCI-H2170,0.694,0.642,0.453,0.574,0.432,0.439,0.414,0.415,0.423,0.441,1,0.829,0.887,0.939,0.874,0.515,0.384,0.457,0.445,0.402
NCI-H2347,0.836,0.81,0.563,0.475,0.369,0.67,0.377,0.405,0.443,0.406,0.302,0.26,0.273,0.296,0.322,0.671,0.656,0.619,0.657,0.627
NCI-H1993,0.946,0.946,–,1.02,0.754,0.482,0.403,0.487,0.468,0.572,0.404,0.505,0.621,0.567,0.42,0.634,0.438,0.668,0.647,0.579
NCI-H322M,1.37,1.19,1.13,0.917,0.82,0.841,0.764,0.668,0.626,0.701,0.437,0.537,0.524,0.508,0.495,0.721,0.631,0.68,0.655,0.729
NCI-H838,1.2,1.21,0.561,0.815,0.403,0.523,0.503,0.613,0.595,0.518,0.597,0.444,0.536,0.667,0.523,0.47,0.483,0.477,0.444,0.523
HARA,1.14,1.13,–,1.1,0.718,0.513,0.455,0.475,0.506,0.402,0.613,0.548,0.702,0.876,1.04,0.513,0.527,0.568,0.683,0.684
NCI-H2087,1.16,0.885,0.488,0.767,0.37,0.512,0.532,0.486,0.536,0.459,0.2,0.158,0.189,0.246,0.199,0.259,0.28,0.307,0.342,0.38
